“Also recorded” adds a separate entry of the source.
Tests used:
peptide-pulsed T2 cells [1] = assay: IFN-gamma ELISPOT assay of CTLs induced in vitro with peptide-pulsed DCs; assay type: cell-based, human; settings: CTLs from HLA-A*0201 positive donor, day 21, peptide-pulsed T2 versus no peptide control
Excerpt: Monocyte-derived dendritic cells (DCs) were used as antigen-presenting cells to induce cytotoxic T lymphocyte (CTL) responses against peptides presented on human leukocyte antigen (HLA). DCs were generated in vitro as described elsewhere (Nakahara S et al., Cancer Res 2003 Jul. 15, 63(14): 4112-8). Specifically, peripheral blood mononuclear cells isolated from a normal volunteer (HLA-A*0201 positive) by Ficoll-Plaque (Pharmacia) solution were separated by adherence to a plastic tissue culture dish (Becton Dickinson) so as to enrich them as the monocyte fraction. The monocyte-enriched population was cultured in the presence of 1000 U/ml of granulocyte-macrophage colony-stimulating factor (R&D System) and 1000 U/ml of interleukin (IL)-4 (R&D System) in AIM-V Medium (Invitrogen) containing 2% heat-inactivated autologous serum (AS). After 7 days of culture, the cytokine-induced DCs were pulsed with 20 micro-g/ml of each of the synthesized peptides in the presence of 3 micro-g/ml of beta 2-microglobulin for 3 hr at 37 degrees C. in AIM-V Medium. The generated cells appeared to express DC-associated molecules, such as CD80, CD83, CD86 and HLA class II, on their cell surfaces (data not shown). These peptide-pulsed DCs were then inactivated by X-irradiated (20 Gy) and mixed at a 1:20 ratio with autologous CD8+ T cells, obtained by positive selection with CD8 Positive Isolation Kit (Dynal). These cultures were set up in 48-well plates (Corning); each well contained 1.5×10^4 peptide-pulsed DCs, 3×10^5 CD8+ T cells and 10 ng/ml of IL-7 (R&D System) in 0.5 ml of AIM-V/2% AS medium. Three days later, these cultures were supplemented with IL-2 (CHIRON) to a final concentration of 20 IU/ml. On day 7 and 14, the T cells were further stimulated with the autologous peptide-pulsed DCs. The DCs were prepared each time by the same way described above. CTL was tested against peptide-pulsed T2 cells after the 3rd round of peptide stimulation on day 21 (Tanaka H et al., Br J Cancer Jan. 5, 2001, 84(1): 94-9; Umano Y et al., Br J Cancer Apr. 20, 2001, 84(8): 1052-7; Uchida N et al., Clin Cancer Res Dec. 15, 2004, 10(24): 8577-86; Suda T et al., Cancer Sci May 2006, 97(5): 411-9; Watanabe T et al., Cancer Sci August 2005, 96(8): 498-506).
(§1) Specifically, peptide-pulsed T2 (1×10^4/well) was prepared as stimulator cells. Cultured cells in 48 wells were used as responder cells. IFN-gamma ELISPOT assay and IFN-gamma ELISA assay were performed under manufacture procedure.

peptide-pulsed T2 cells [2] = assay: IFN-gamma ELISA assay of expanded CTL lines; assay type: cell-based, human; settings: target cells pulsed with peptide versus without peptide pulse
Experimental: CTLs were expanded in culture using the method similar to the one described by Riddell et al. (Walter E A et al., N Engl J Med Oct. 19, 1995, 333(16): 1038-44; Riddell S R et al., Nat Med February 1996, 2(2): 216-23). A total of 5×10^4 CTLs were suspended in 25 ml of AIM-V/5% AS medium with 2 kinds of human B-lymphoblastoid cell lines, inactivated by Mitomycin C, in the presence of 40 ng/ml of anti-CD3 monoclonal antibody (Pharmingen). One day after initiating the cultures, 120 IU/ml of IL-2 were added to the cultures. The cultures were fed with fresh AIM-V/5% AS medium containing 30 IU/ml of IL-2 on days 5, 8 and 11 (Tanaka H et al., Br J Cancer Jan. 5, 2001, 84(1): 94-9; Umano Y et al., Br J Cancer Apr. 20, 2001, 84(8): 1052-7; Uchida N et al., Clin Cancer Res Dec. 15, 2004, 10(24): 8577-86; Suda T et al., Cancer Sci May 2006, 97(5): 411-9; Watanabe T et al., Cancer Sci August 2005, 96(8): 498-506).
as §1

peptide-pulsed T2 cells [3] = assay: IFN-gamma ELISA assay of CTL clones established by limiting dilution; assay type: cell-based, human; settings: target cells pulsed with peptide versus without peptide pulse
Experimental: The dilutions were made to have 0.3, 1, and 3 CTLs/well in 96 round-bottomed micro titer plate (Nalge Nunc International). CTLs were cultured with 1×10^4 cells/well of 2 kinds of human B-lymphoblastoid cell lines, 30 ng/ml of anti-CD3 antibody, and 125 U/ml of IL-2 in a total of […] of AIM-V Medium containing 5% AS. 50 micro-l/well of IL-2 were added to the medium 10 days later so to reach a final concentration of 125 U/ml IL-2. CTL activity was tested on the 14th day, and CTL clones were expanded using the same method as described above (Uchida N et al., Clin Cancer Res Dec. 15, 2004, 10(24): 8577-86; Suda T et al., Cancer Sci May 2006, 97(5): 411-9; Watanabe T et al., Cancer Sci August 2005, 96(8): 498-506).
as §1

[4] = test system: COS7 cells transfected with C18orf54 and HLA-A*0201; assay: Specific CTL activity against target cells expressing C18orf54 and HLA-A*0201; assay type: cell-based, African green monkey; settings: CTL clone
Excerpt: The cDNA encoding an open reading frame of target genes or HLA-A*0201 was amplified by PCR. The PCR-amplified product was cloned into the expression vector. The plasmids were transfected into COS7, which is the target genes and HLA-A*0201-null cell line, using lipofectamine 2000 (Invitrogen) according to the manufacturer's recommended procedures. After 2 days from transfection, the transfected cells were harvested with versene (Invitrogen) and used as the target cells (5×10^4 cells/well) for CTL activity assay.
The established CTL lines and clones raised against each peptide were examined for the ability to recognize target cells that express C18orf54 and HLA-A*0201 molecule. […] COS7 cells transfected with either full length of C18orf54 or HLA-A*0201 were prepared as the controls.

In the case of SMIPITRSL [SEQ ID NO: 1], the “Peptide specific CTL activity: IFN-gamma production (ELISPOT)” value (shortened to “Peptide specific CTL activity”) (peptide-pulsed T2 cells [1]; listed as C18orf54-A02-9-500) is reported as “not observed”.

In the case of SIPDFKYPV [SEQ ID NO: 4], the “IFN-gamma production of CTL lines (ELISA)” value (peptide-pulsed T2 cells [2]) is reported as “potent IFN-gamma production”, the “Peptide specific CTL activity” value (peptide-pulsed T2 cells [1]) is reported as “potent IFN-gamma production” and the “IFN-gamma production of CTL clones (ELISA)” value (peptide-pulsed T2 cells [3]; listed as C18orf54-A02-9-255) is reported as “potent IFN-gamma production”.

TSIPDFKYPV [SEQ ID NO: 32] was tested, and the “Peptide specific CTL activity” value (peptide-pulsed T2 cells [1]) was “potent IFN-gamma production”.

In the case of QLKESMIPI [SEQ ID NO: 10], the “Peptide specific CTL activity” value (peptide-pulsed T2 cells [1]) is reported as “potent IFN-gamma production”.

With SLQKALHHL [SEQ ID NO: 5] the “Specific CTL activity against COS7 cells expressing both C18orf54 and HLA-A*0201” value ([4]; COS7 transfected with both full length C18orf54 and HLA-A*0201, listed as C18orf54-A02-9-507) was “potent CTL activity; also recorded: specific CTL activity”, the “Specific CTL activity against control COS7 cells” value ([4]; COS7 transfected with either C18orf54 or HLA-A*0201 alone) was “no significant specific CTL activity” and the “IFN-gamma production of CTL lines (ELISA)” value (peptide-pulsed T2 cells [2]) was “potent IFN-gamma production”. The “Peptide specific CTL activity” value (peptide-pulsed T2 cells [1]) was “potent IFN-gamma production” and the “IFN-gamma production of CTL clones (ELISA)” value (peptide-pulsed T2 cells [3]; listed as C18orf54-A02-9-507) was “potent IFN-gamma production”.

In the case of QMLFNLQAV [SEQ ID NO: 2], the “IFN-gamma production of CTL lines (ELISA)” value (peptide-pulsed T2 cells [2]) is reported as “potent IFN-gamma production” and the “Peptide specific CTL activity” value (peptide-pulsed T2 cells [1]) is reported as “potent IFN-gamma production”.

With SLSDDKELV [SEQ ID NO: 3] the “Peptide specific CTL activity” value (peptide-pulsed T2 cells [1]) was “potent IFN-gamma production”.

With KLYRSASQA [SEQ ID NO: 14] the “Peptide specific CTL activity” value (peptide-pulsed T2 cells [1]) was “potent IFN-gamma production”.

WLTSQKSDL [SEQ ID NO: 20] was tested, and the “Peptide specific CTL activity” value (peptide-pulsed T2 cells [1]) was “potent IFN-gamma production”.

VTFKSPVPV [SEQ ID NO: 9] was tested, and the “Peptide specific CTL activity” value (peptide-pulsed T2 cells [1]) was “potent IFN-gamma production”.

— patent US20130287805A1, “C18ORF54 PEPTIDES AND VACCINES INCLUDING THE SAME” (priority 2010, published 2013)
